Measurements published in patent US20150376216A1, “SUGAR-ANALOG PHOSPHORUS-CONTAINING HETEROCYCLES HAVING AN ANTI-METASTATIC ACTIVITY” (CENTRE NATIONAL DE LA RECHERCHE SCIENTIRIQUE, priority 2013, published 2015).

Legend:
MDAMB-435 cells = assay: MDAMB-435 subcutaneous model; assay type: in vivo, mice
Protocol: A suspension of 1×10^6 MDAMB-435 cells in 100 μl of sterile PBS (phosphate-buffered saline, supplied by Fisher) was injected into each mouse (subcutaneous administration, with anesthesia, in the mammary gland of the left hind quarter). Once a control pregroup of three mice presented the first metastases (liver, intestine, ovary), the protocol was conducted with […] of eight mice. The five groups of mice were treated using one of the five formulations described below:
Group A: Treatment by injection of 100 μl of NaCl (control N° 1).
Group B: Treatment by injection of 100 to 150 μl according to the weight of the mice of formulation 2 not containing compound 4.2a (control N° 2).
Group C: Treatment with compound 4.2a at a rate of 10 mg/kg with volumes of 100 to 150 μl of formulation 2 depending on the weight of the mice.
Group D: Treatment with compound 4.2a at a rate of 5 mg/kg with volumes of 100 to 150 μl of formulation 2 depending on the weight of the mice.
Each batch was treated by intravenous injection into the caudal vein of 100 to 150 μl of solution (precision syringe and G25X1 needle ultrafine wall, VWR). Three injections per week for four weeks were performed. The mice were weighed at each injection. The mice were sacrificed after four weeks, and the tumors and organs (liver, kidney, spleen, brain, intestine, heart, muscles) were removed. A histological analysis was performed on these organs.

CaCo2 = assay: MTT antiproliferative test, CaCo2; assay type: cell-based; settings: Homo sapiens, Caco-2, read-out: IC50, inhibition of proliferation
Protocol: (§1) The lines MDAMB-435 and A431 are seeded at a density of 3000 cells per well in 96-well plates. After 24 hours, compounds 4.2a and 5.6d resuspended in 100% DMSO are added at concentrations of 0-0.001-0.010-0.1-1-10-50 μM for a final constant amount of DMSO of 0.3%. The cultures are maintained for a further 72 hours and an MTT colorimetric test is then performed. 100 μl of a solution of MTT at 5 mg/ml in PBS are added to the culture medium, which is left to incubate for 3 hours. The culture medium is removed and the cells are lyzed by adding 100 μL of a 4 mM HCl solvent, 0.1% Nondet P-40 (NP40) in isopropanol. The yellow tetrazolium MTT salt (3-(4,5-dimethylthiazol-2-yl)-2,5-diphenyl tetrazolium bromide), when it is reduced by the mitochondrial succinate dehydrogenase of active live cells, forms a blue-violet formazan product. The medium then changes from yellow to blue-violet. The intensity of this coloration at 590 nm is proportional to the number of live cells present during the test and gives an indication of the metabolic activity of these cells.
(§2) Table 1 gives the concentration values for 50% inhibition of proliferation (IC50) for compounds 4.2a and 5.6d on lines derived from bowel cancer (CaCo2), skin cancer (A431, MDAMB-435, B16F10), breast cancer (MDAMB-431), […] (HuH7), prostate cancer (DU145) and brain cancer (SNB75, Gli4, Gli7).

SNB75 glioblastoma line = assay: MTT antiproliferative test, SNB75; assay type: cell-based; settings: Homo sapiens, SNB-75, read-out: IC50, inhibition of proliferation
Protocol: (§3) Several cancer cell lines were used for the in vivo or in vitro biological tests: • SNB75 is a human glioblastoma line derived from a primary culture, i.e. derived from a primary malignant cancer tumor. It forms part of the panel of 59 cancer lines referenced by the NCI. Its Cosmic reference number published by the Welcome Trust Sanger Institute is 905982. This line was supplied by a person (M.D. Ph.D of the department of “Radiation Oncology”, Stanford University Medical Center). It was cultured in Ham's F-12 and DMEM (1/1) supplemented with 10% fetal bovine serum. The experiments were performed with cells in the exponential growth phase. • Gli4 (or Gli4F11) and Gli7 are cultures of cancer strain cells derived from human glioblastomas (primary cultures). These lines are CD133^+, CD15^+ which are multipotent and tumorigenic in animals. They were established by J. P. Hugnot (INM INSERM U-1051 Eq. 4), and described in Guichet, P. O. et al, Glia 2013, 61(2), 225-239; • C6 is a rat glioblastoma line. It is referenced in the ATCC under the reference CCL-107. • MDAMB-435 is a melanoma line derived from a mammary melanoma. It forms part of the panel of 59 cancer lines referenced by the NCI. It is referenced at the ATCC under the reference HTB-129. It was cultured in Ham's F-12 and DMEM (1/1) supplemented with 10% fetal bovine serum. […]

MDAMB-435 melanoma line = assay: MTT antiproliferative test, MDAMB-435; assay type: cell-based; settings: Homo sapiens, MDA-MB-435, 72 hours, read-out: IC50, inhibition of proliferation
Protocol: as §1, §2

C6 glioblastoma line = assay: MTT antiproliferative test, C6; assay type: cell-based; settings: Rattus norvegicus, read-out: IC50, inhibition of proliferation
Protocol: as §3

[1] = 10 and 5 mg/kg i.v. (groups C and D), three injections per week for four weeks

In the case of `CC1(C)O[C@H]2[C@@H]([C@H]3COC(C)(C)O3)O[P@](=O)(c3ccccc3)[C@@H](OC(=O)c3ccccc3)[C@H]2O1` [Compound 4.2a, (SPRSRR)-3-benzoate-4-(2,2-dimethyl-[1,3]dioxolan-4-yl)-2,2-dimethyl-2-oxo-2-phenyl-tetrahydro-2λ^5-[1,2]oxaphosphinane], the “Metastases in the ovaries (FIG. 4)” value (MDAMB-435 cells; 10 and 5 mg/kg (groups C and D)) is reported as “absence of metastases”, the “Number of metastases per mouse (FIG. 5)” value (MDAMB-435 cells; 10 and 5 mg/kg (groups C and D), controls predominantly more than two) is reported as “none of the mice treated with compound 4.2a (groups C and D) developed more than two metastases” and the “Metastatic development (size of metastases)” value (MDAMB-435 cells; [1]) is reported as “a reduction in metastatic development (small-sized metastases)”. The Number of metastases (MDAMB-435 cells; [1]) was “a large reduction in the number of metastases”, the “Mass distribution of secondary tumors (FIG. 6)” value (MDAMB-435 cells; as a function of the treatment conditions) was “reduced the development of metastases” and the IC50 (CaCo2) was > 100 µM. It also gave an IC50 (SNB75 glioblastoma line) of 9.54 µM, an IC50 (MDAMB-435 melanoma line) of 660 nM and an IC50 (C6 glioblastoma line) of 8.51 µM.
